Earlier results as cited in patent publication US20150297607A1, “Tricyclic Lactams for Use in the Protection of Normal Cells During Chemotherapy” (G1 Therapeutics, Inc., priority 2014, published 2015).

Settings: clinical trial; Grade 3/4 neutropenia and leukopenia

- patients requiring a dose interruption: 71%
- patients requiring a dose reduction: 35%
Compound: CC(=O)c1c(C)c2cnc(Nc3ccc(N4CCNCC4)cn3)nc2n(C2CCCC2)c1=O [PD0332991, 6-acetyl-8-cyclopentyl-5-methyl-2-(5-piperazin-1-yl-pyridin-2-ylammino)-8H-pyrido-[2,3-d]-pyrimidin-7-one]
